Measured values from patent publication US20260250640A1, “NOVEL COMPOSITIONS AND THEIR USE TO INCREASE MOTILITY, VIABILITY AND LIFESPAN OF SPERM CELLS AND FERTILITY” (IMV TECHNOLOGIES, priority 2023, published 2026).

Tested on: bull semen
Protocol: • a 2.4 mM BaCl2 solution in OptiXcell was prepared, • 1 mL of this solution was resuspended in a 5 mg vial of DMNP-EDTA, • 1.5 mL of DMNP-EDTA were added for a final DMNP-EDTA concentration of 2.6 mM, • The solution was kept away from light, • The solution was contacted with semen in different chelator/semen ratios: • 1:1=>500 μL chelators+500 μL bull semen at 57 Mspz/mL • 1:0.75=>500 μL chelators+375 μL bull semen at 57 Mspz/mL • 1:0.5=>500 μL chelators+250 μL bull semen at 57 Mspz/mL • 1:0.25=>500 μL chelators+125 μL bull semen at 57 Mspz/mL • A BaCl2 solution only: 500 μL BaCl2 at 2.4 mM+500 μL bull semen at 57 Mspz/mL was prepared • The following analyses have been performed on frozen bull semen: • Mobility analysis on IVOS II™ at T=0 and T3H 37° C., • Acrosome integrity analysis on EasyCyte at T=0 and T3H 37° C., • Viability analysis on EasyCyte at T=0 and T3H 37° C. • Mitochondrial activity analysis on EasyCyte at T=0 and T3H 37° C.
The control corresponds to OptiXcell alone.

Row | SMILES | sperm viability (T=3H 37° C.) | impact on viability | sperm viability, difference vs. Control | impact on mobility (T0 and T3H 37° C., conclusion) | sperm motility, difference vs control (OptiXcell alone) (T=3H 37° C., 1/1 chelator/semen) | sperm motility (presence of chelator (BaCl2/DMNP-EDTA solution in OptiXcell), T=0 and T3H 37° C.)
1 | [Ba+2].[Cl-].[Cl-] [BaCl2] | remained unchanged | – | – | – | – | –
2 | COc1cc(C(CN(CC(=O)O)CC(=O)O)N(CC(=O)O)CC(=O)O)c([N+](=O)[O-])cc1OC (stereo not drawn) [chelator, DMNP-EDTA] | – | No major impact | +13 pts | No major impact | +9 pts | not affected
